Results on ten compounds are retold here after patent publication US11331369B2, “Endoparasitic depsipeptides” (Zoetis Services LLC, priority 2017, dated 2022).

For this assay, the system named is microfilariae of Dirofilaria immitis. The assay is described as follows: Dirofilaria immitis, Microfilaria (DiMF) In vitro Assay. The format is cell-based. To be noted: 72 h, read-out: DiMF Minimum Effective Dose (MED), approximately 72 hours incubation, microfilariae assessed for survival or paralysis.

As to `CC(C)C[C@H]1C(=O)O[C@H](Cc2ccc(Cn3cc(-c4nccs4)cn3)cc2)C(=O)N(C)[C@@H](CC(C)C)C(=O)O[C@H](C)C(=O)N(C)[C@@H](CC(C)C)C(=O)O[C@H](Cc2ccc(Cn3cc(-c4nccs4)cn3)cc2)C(=O)N(C)[C@@H](CC(C)C)C(=O)O[C@H](C)C(=O)N1C` [Example 1b-13, (3S,6R,9S,12R,15S,18R,21S,24R)-3,9,15,21-tetraisobutyl-4,6,10,16,18,22-hexamethyl-12,24-bis(4-((4-(thiazol-2-yl)-1H-pyrazol-1-yl)methyl)benzyl)-1,7,13,19-tetraoxa-4,10,16,22-tetraazacyclotetracosan-2,5,8,11,14,17,20,23-octaone], the minimal effective concentration was in the range of 0.01 to 0.1 µM.

As for `CCOC(=O)c1cnn(Cc2ccc(C[C@H]3OC(=O)[C@H](CC(C)C)N(C)C(=O)[C@@H](C)OC(=O)[C@H](CC(C)C)N(C)C(=O)[C@@H](Cc4ccc(Cn5cc(C(=O)OCC)cn5)cc4)OC(=O)[C@H](CC(C)C)N(C)C(=O)[C@@H](C)OC(=O)[C@H](CC(C)C)N(C)C3=O)cc2)c1` [Example 1b-39, diethyl 1,1′-(((((2R,5S,8R,11S,14R,17S,20R,23S)-5,11,17,23-tetraisobutyl-4,8,10,16,20,22-hexamethyl-3,6,9,12,15,18,21,24-octaoxo-1,7,13,19-tetraoxa-4,10,16,22-tetraazacyclotetracosane-2,14-diyl)bis(methylene))bis(4,1-phenylene))bis(methylene))bis(1H-pyrazole-4-carboxylate)], the minimal effective concentration was in the range of 0.01 to 0.1 µM.

With `CC(C)C[C@H]1C(=O)O[C@H](Cc2ccc(Cn3cc(CCO)cn3)cc2)C(=O)N(C)[C@@H](CC(C)C)C(=O)O[C@H](C)C(=O)N(C)[C@@H](CC(C)C)C(=O)O[C@H](Cc2ccc(Cn3cc(CCO)cn3)cc2)C(=O)N(C)[C@@H](CC(C)C)C(=O)O[C@H](C)C(=O)N1C` [Example 1b-75, (3S,6R,9S,12R,15S,18R,21S,24R)-6,18-bis(4-((4-(2-hydroxyethyl)-1H-pyrazol-1-yl)methyl)benzyl)-3,9,15,21-tetraisobutyl-4,10,12,16,22,24-hexamethyl-1,7,13,19-tetraoxa-4,10,16,22-tetraazacyclotetracosan-2,5,8,11,14,17,20,23-octaone], the minimal effective concentration is 0.01 to 0.1 µM.

In the case of `CC(C)C[C@H]1C(=O)O[C@H](Cc2cccc(Cn3ccnc3)c2)C(=O)N(C)[C@@H](CC(C)C)C(=O)O[C@H](C)C(=O)N(C)[C@@H](CC(C)C)C(=O)O[C@H](Cc2ccc(Cn3ccnc3)cc2)C(=O)N(C)[C@@H](CC(C)C)C(=O)O[C@H](C)C(=O)N1C` [Example 7-2, (3S,6R,9S,12R,15S,18R,21S,24R)-6-(3-((1H-imidazol-1-yl)methyl)benzyl)-18-(4-((1H-imidazol-1-yl)methyl)benzyl)-3,9,15,21-tetraisobutyl-4,10,12,16,22,24-hexamethyl-1,7,13,19-tetraoxa-4,10,16,22-tetraazacyclotetracosan-2,5,8,11,14,17,20,23-octaone], the minimal effective concentration was in the range of 0.01 to 0.1 µM.

`CC(C)C[C@H]1C(=O)O[C@H](Cc2ccc(Cn3c(=O)ccc4ccccc43)cc2)C(=O)N(C)[C@@H](CC(C)C)C(=O)O[C@H](C)C(=O)N(C)[C@@H](CC(C)C)C(=O)O[C@H](Cc2ccccc2)C(=O)N(C)[C@@H](CC(C)C)C(=O)O[C@H](C)C(=O)N1C` [Example 10-12, (3S,6R,9S,12R,15S,18R,21S,24R)-6-benzyl-3,9,15,21-tetraisobutyl-4,10,12,16,22,24-hexamethyl-18-(4-((2-oxoquinolin-1 (2H)-yl)methyl)benzyl)-1,7,13,19-tetraoxa-4,10,16,22-tetraazacyclotetracosan-2,5,8,11,14,17,20,23-octaone]: the minimal effective concentration was in the range of 0.01 to 0.1 µM.

On to `CC(C)C[C@H]1C(=O)O[C@H](Cc2ccc(CN3CCS(=O)(=O)c4cccnc43)cc2)C(=O)N(C)[C@@H](CC(C)C)C(=O)O[C@H](C)C(=O)N(C)[C@@H](CC(C)C)C(=O)O[C@H](Cc2ccc(CN3CCS(=O)(=O)c4cccnc43)cc2)C(=O)N(C)[C@@H](CC(C)C)C(=O)O[C@H](C)C(=O)N1C` [Example 9-62, (3S,6R,9S,12R,15S,18R,21S,24R)-6,18-bis(4-((1,1-dioxido-2,3-dihydro-4H-pyrido[3,2-b][1,4]thiazin-4-yl)methyl)benzyl)-3,9,15,21-tetraisobutyl-4,10,12,16,22,24-hexamethyl-1,7,13,19-tetraoxa-4,10,16,22-tetraazacyclotetracosan-2,5,8,11,14,17,20,23-octaone], for which the minimal effective concentration was in the range of 0.01 to 0.1 µM.

For `Cc1nn(Cc2ccc(C[C@H]3OC(=O)[C@H](CC(C)C)N(C)C(=O)[C@@H](C)OC(=O)[C@H](CC(C)C)N(C)C(=O)[C@@H](Cc4ccccc4)OC(=O)[C@H](CC(C)C)N(C)C(=O)[C@@H](C)OC(=O)[C@H](CC(C)C)N(C)C3=O)cc2)c(C)c1C#N` [Example 2-78, 1-(4-(((2R,5S,8R,11S,14R,17S,20R,23S)-14-benzyl-5,11,17,23-tetraisobutyl-4,8,10,16,20,22-hexamethyl-3,6,9,12,15,18,21,24-octaoxo-1,7,13,19-tetraoxa-4,10,16,22-tetraazacyclotetracosan-2-yl)methyl)benzyl)-3,5-dimethyl-1H-pyrazole-4-carbonitrile], the minimal effective concentration fell in the range of 0.01 to 0.1 µM.

With `Cc1nn(Cc2ccc(C[C@H]3OC(=O)[C@H](CC(C)C)N(C)C(=O)[C@@H](C)OC(=O)[C@H](CC(C)C)N(C)C(=O)[C@@H](Cc4ccc(Cn5cc(Br)c(C)n5)cc4)OC(=O)[C@H](CC(C)C)N(C)C(=O)[C@@H](C)OC(=O)[C@H](CC(C)C)N(C)C3=O)cc2)cc1Br` [Example 1b-43, (3S,6R,9S,12R,15S,18R,21S,24R)-6,18-bis(4-((4-bromo-3-methyl-1H-pyrazol-1-yl)methyl)benzyl)-3,9,15,21-tetraisobutyl-4,10,12,16,22,24-hexamethyl-1,7,13,19-tetraoxa-4,10,16,22-tetraazacyclotetracosan-2,5,8,11,14,17,20,23-octaone], the minimal effective concentration fell in the range of 0.01 to 0.1 µM.

Regarding `CCOc1cc(C)nn1Cc1ccc(C[C@H]2OC(=O)[C@H](CC(C)C)N(C)C(=O)[C@@H](C)OC(=O)[C@H](CC(C)C)N(C)C(=O)[C@@H](Cc3ccc(Cn4nc(C)cc4OCC)cc3)OC(=O)[C@H](CC(C)C)N(C)C(=O)[C@@H](C)OC(=O)[C@H](CC(C)C)N(C)C2=O)cc1` [Example 1b-163, (3S,6R,9S,12R,15S,18R,21S,24R)-6,18-bis(4-((5-ethoxy-3-methyl-1H-pyrazol-1-yl)methyl)benzyl)-3,9,15,21-tetraisobutyl-4,10,12,16,22,24-hexamethyl-1,7,13,19-tetraoxa-4,10,16,22-tetraazacyclotetracosan-2,5,8,11,14,17,20,23-octaone], the minimal effective concentration was 0.01 to 0.1 µM.

In the case of `CC(C)C[C@H]1C(=O)O[C@H](Cc2ccc(Cn3ccc(-c4cnccn4)n3)cc2)C(=O)N(C)[C@@H](CC(C)C)C(=O)O[C@H](C)C(=O)N(C)[C@@H](CC(C)C)C(=O)O[C@H](Cc2ccc(Cn3ccc(-c4cnccn4)n3)cc2)C(=O)N(C)[C@@H](CC(C)C)C(=O)O[C@H](C)C(=O)N1C` [Example 1b-195, (3S,6R,9S,12R,15S,18R,21S,24R)-3,9,15,21-tetraisobutyl-4,6,10,16,18,22-hexamethyl-12,24-bis[[4-[(3-pyrazin-2-ylpyrazol-1-yl)methyl]phenyl]methyl]-1,7,13,19-tetraoxa-4,10,16,22-tetrazacyclotetracosane-2,5,8,11,14,17,20,23-octaone], the minimal effective concentration fell in the range of 0.01 to 0.1 µM.
